Source: patent publication EP4122499A1, “FIBROBLAST ACTIVATION PROTEIN INHIBITORS AND USE THEREOF” (3B Pharmaceuticals GmbH, priority 2021, dated 2023)

Legend:
[1] = biological target: T1, Recombinant human DPP4 (Homo sapiens, UniProt P27487); assay: DPP4 protease activity assay; type: biochemical; conditions: 20 µM GP-AMC substrate; read-out: pIC50 (DPP4) (converted)
T1 construct: purchased R&D systems 9168-SE
Method: (§1) The PREP activity assay was performed using the FACS buffer (PBS including 1% FBS, Sigma-Aldrich, Cat# D8537). […] The DPP4 activity assay was performed in DPP assay buffer (25 mM Tris, pH 8.0).
(§2) Four parameter logistic (4PL) curve fitting and pIC50 calculations were performed using ActivityBase software.

[2] = biological target: T2, Human recombinant FAP (Homo sapiens, UniProt Q12884); assay: FRET-based FAP protease activity assay (human); type: biochemical; set-up: purchased R&D systems 3715-SE; conditions: FRET-peptide substrate, 37°C, read-out: pIC50 (Activity) (converted)
T2 sequence (Q12884 1-760): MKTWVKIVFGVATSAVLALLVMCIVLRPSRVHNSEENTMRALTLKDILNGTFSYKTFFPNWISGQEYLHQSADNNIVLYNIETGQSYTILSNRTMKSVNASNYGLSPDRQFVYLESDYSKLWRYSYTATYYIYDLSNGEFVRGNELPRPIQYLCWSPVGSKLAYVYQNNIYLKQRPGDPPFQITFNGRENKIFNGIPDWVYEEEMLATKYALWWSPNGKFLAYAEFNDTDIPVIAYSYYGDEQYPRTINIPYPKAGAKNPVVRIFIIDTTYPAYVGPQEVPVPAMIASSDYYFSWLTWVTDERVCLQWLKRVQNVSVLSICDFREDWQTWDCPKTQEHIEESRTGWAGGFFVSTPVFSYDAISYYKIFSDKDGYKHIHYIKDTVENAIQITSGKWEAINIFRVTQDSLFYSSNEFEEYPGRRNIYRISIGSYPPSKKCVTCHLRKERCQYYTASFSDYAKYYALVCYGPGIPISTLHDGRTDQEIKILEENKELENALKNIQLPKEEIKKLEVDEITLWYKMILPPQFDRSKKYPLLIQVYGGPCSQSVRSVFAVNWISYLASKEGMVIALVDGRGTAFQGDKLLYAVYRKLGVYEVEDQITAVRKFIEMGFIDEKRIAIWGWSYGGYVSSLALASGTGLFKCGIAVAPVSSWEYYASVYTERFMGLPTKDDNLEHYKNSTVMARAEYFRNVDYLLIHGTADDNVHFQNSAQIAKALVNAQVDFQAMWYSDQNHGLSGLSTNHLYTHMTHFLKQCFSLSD
Method: In order to determine the inhibitory activity a FRET-based FAP protease activity assay was established.
25 µL of a 30 µM substrate solution, diluted in assay buffer, was added. […] Four parameter logistic (4PL) curve fitting and pIC50 calculations were performed using ActivityBase software (IDBS).

[3] = biological target: T3, FAP-expressing human WI-38 fibroblasts (Homo sapiens, UniProt Q12884); assay: Competitive FACS binding assay (displacement of Cy5-labeled FAP inhibitor 3BP-2935); conditions: 3 nM Cy5-labeled 3BP-2935, 4°C, 1 hour
T3 construct: FAP-expressing human WI-38 fibroblasts (ECACC 90020107) were cultured in EMEM; host or cells: WI-38 human fibroblasts
T3 sequence (Q12884 1-760): T2 sequence (Q12884 1-760)

[4] = biological target: T4, recombinant human PREP (Homo sapiens, UniProt P48147); assay: PREP protease activity assay; type: biochemical; conditions: 50 µM Z-GP-AMC substrate
T4 construct: purchased R&D systems 4308-SE
T4 sequence (P48147 1-710): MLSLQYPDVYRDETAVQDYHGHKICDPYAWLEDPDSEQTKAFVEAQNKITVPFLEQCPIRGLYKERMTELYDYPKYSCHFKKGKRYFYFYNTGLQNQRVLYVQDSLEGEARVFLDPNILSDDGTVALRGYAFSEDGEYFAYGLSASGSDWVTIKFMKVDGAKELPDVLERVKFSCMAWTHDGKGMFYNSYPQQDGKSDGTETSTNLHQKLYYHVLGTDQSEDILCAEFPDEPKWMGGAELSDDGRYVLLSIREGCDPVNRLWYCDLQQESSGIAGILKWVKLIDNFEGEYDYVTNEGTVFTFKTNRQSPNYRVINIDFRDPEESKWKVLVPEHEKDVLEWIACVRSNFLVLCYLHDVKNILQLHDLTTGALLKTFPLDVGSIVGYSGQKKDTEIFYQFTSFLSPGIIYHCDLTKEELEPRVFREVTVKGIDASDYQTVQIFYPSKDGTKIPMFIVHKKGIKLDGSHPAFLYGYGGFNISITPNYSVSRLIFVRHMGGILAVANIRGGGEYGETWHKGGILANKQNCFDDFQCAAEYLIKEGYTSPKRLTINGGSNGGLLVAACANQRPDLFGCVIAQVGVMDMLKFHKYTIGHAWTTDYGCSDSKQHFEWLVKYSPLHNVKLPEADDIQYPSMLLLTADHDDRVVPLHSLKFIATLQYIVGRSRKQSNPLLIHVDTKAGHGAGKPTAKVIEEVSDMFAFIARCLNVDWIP
Method: as §1, §2

T1 sequence (P27487 whole entry): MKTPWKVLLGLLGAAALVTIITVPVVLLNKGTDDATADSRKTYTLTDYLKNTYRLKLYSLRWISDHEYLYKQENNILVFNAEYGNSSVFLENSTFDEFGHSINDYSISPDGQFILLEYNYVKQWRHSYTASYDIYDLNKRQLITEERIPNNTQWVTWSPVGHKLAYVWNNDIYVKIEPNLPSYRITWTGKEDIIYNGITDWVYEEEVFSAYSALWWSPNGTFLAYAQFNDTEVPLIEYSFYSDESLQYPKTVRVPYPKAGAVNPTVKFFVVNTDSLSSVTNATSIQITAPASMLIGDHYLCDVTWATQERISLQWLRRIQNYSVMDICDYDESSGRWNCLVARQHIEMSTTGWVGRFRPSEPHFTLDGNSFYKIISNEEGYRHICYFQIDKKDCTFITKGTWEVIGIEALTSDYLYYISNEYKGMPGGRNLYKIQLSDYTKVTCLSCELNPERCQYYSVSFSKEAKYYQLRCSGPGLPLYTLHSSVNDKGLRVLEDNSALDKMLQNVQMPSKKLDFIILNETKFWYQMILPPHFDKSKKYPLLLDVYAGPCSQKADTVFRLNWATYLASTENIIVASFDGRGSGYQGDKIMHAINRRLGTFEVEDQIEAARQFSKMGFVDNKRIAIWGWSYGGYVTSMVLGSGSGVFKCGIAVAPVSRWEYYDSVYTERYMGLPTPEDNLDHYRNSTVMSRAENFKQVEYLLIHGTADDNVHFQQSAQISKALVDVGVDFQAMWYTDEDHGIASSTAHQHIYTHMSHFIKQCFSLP

Structure (SMILES) | IC50 [1] | IC50 [2] | IC50 [3] | IC50 [4]
CS(=O)(=O)c1ccc(-c2ccc3nccc(C(=O)NCC(=O)N4CC(F)(F)C[C@H]4C#N)c3c2)cc1 | > 1000 nM | 0.631 nM | 1 nM | > 1000 nM
CS(=O)(=O)c1ccc(-c2ccc3nccc(C(=O)NCC(=O)N4CCC[C@H]4C#N)c3c2)cc1 | > 1000 nM | 0.631 nM | 3.98 nM | > 1000 nM
CS(=O)(=O)c1cccc(-c2ccc3nccc(C(=O)NCC(=O)N4CC(F)(F)C[C@H]4C#N)c3c2)c1 [drawing 288] | 794 nM | 0.631 nM | 1.58 nM | > 1000 nM
CS(=O)(=O)c1cccc(-c2ccc3c(C(=O)NCC(=O)N4CC(F)(F)C[C@H]4C#N)ccnc3c2)c1 [drawing 289] | > 1000 nM | 0.794 nM | 2 nM | > 1000 nM
